In assay [1] the target is T1, Full length human recombinant HDAC6 (Homo sapiens, UniProt Q9UBN7).
T1 construct: Full length human recombinant HDAC6 and HDAC11 proteins were expressed in baculoviral system
T1 sequence (Q9UBN7 1-1215): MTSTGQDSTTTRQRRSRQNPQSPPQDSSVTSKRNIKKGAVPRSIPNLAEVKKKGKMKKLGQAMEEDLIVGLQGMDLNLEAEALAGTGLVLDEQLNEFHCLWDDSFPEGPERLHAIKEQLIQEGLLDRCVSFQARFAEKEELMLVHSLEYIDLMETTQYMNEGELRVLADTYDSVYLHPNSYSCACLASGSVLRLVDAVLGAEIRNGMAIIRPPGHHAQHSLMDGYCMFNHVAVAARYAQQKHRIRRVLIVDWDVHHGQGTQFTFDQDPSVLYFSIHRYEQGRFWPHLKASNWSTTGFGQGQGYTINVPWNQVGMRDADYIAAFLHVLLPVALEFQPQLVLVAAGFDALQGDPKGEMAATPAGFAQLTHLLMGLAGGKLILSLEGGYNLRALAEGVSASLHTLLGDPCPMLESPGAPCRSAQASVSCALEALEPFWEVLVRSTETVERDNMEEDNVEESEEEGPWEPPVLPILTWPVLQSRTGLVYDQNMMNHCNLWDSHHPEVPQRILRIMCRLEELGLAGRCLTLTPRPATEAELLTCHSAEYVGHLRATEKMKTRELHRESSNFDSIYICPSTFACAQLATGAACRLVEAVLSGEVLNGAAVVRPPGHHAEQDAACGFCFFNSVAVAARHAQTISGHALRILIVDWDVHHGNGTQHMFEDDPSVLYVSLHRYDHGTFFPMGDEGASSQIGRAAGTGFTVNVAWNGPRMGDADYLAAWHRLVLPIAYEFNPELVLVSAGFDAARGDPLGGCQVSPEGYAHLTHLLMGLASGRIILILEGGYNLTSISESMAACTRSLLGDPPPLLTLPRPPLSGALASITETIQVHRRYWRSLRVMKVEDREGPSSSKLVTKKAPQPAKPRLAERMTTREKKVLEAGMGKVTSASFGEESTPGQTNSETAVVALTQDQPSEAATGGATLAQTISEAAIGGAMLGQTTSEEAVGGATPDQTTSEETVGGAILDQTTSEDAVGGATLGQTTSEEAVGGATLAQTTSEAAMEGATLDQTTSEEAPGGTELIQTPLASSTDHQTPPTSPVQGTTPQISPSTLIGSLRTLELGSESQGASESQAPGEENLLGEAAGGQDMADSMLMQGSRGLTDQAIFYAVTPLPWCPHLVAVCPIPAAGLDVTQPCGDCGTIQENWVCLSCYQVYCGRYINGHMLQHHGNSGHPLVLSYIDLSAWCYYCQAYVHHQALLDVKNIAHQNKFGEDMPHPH
Kind of assay: In vitro histone deacetylase assay, enzymatic HDAC6 (electrophoretic mobility shift assay). The assay is classed as biochemical. Conditions: 1 nM HDAC6; 2 μM peptide substrate FAM-RHKK(Ac)—NH2; 25° C.; 12 concentrations; read-out: HDAC6 Activity Range (IC50). The method in brief: (§1)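 Baculovirus-expressed full-length enzymes (HDAC6 1 nM, FAM-RHKK(Ac)-NH2; HDAC11 10 nM, FAM-RHKK(tri-fluor-Ac)-NH2), 2 μM substrate, HEPES pH 7.5, 25°C, 12-point 3× dilutions. Product/substrate separated by microfluidic mobility shift after SDS quench; IC50 from 4-parameter fit, reported as +/++/+++ bins.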

Assay [2] concerns the target T2, Full length human recombinant HDAC11 (Homo sapiens, UniProt Q96DB2).
T2 construct: Full length human recombinant HDAC6 and HDAC11 proteins were expressed in baculoviral system
T2 sequence (Q96DB2 1-347): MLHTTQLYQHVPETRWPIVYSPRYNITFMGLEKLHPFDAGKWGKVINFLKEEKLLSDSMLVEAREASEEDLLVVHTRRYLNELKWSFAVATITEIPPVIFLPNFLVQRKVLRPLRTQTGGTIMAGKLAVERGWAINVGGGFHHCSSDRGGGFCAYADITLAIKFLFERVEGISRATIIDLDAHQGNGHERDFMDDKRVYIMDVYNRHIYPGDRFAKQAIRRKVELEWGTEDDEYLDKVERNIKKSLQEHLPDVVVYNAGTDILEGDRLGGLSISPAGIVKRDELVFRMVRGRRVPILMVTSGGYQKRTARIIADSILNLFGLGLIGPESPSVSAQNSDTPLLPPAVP
Description: In vitro histone deacetylase assay, enzymatic HDAC11 (electrophoretic mobility shift assay). In kind it is biochemical. To be noted: 10 nM HDAC11; 2 μM peptide substrate FAM-RHKK(tri-fluor-Ac)—NH2; 25° C.; 12 concentrations; read-out: HDAC11 Activity Range (IC50). In short, it runs like this: as §1

The term IC50 denotes the midpoint of a concentration-inhibition curve. On to `O=C(NO)c1ccc2c(c1)C[C@@]1(CC2)CCN(Cc2ccccc2)C1=O` [Compound I-35, (S)-1′-benzyl-N-hydroxy-2′-oxo-3,4-dihydro-1H-spiro[naphthalene-2,3′-pyrrolidine]-7-carboxamide], for which the IC50 was not above 100 nM in assay [1] and more than 500 nM in assay [2].

Regarding `COCCN1CC[C@]2(CCc3ccc(C(=O)NO)cc3C2)C1=O` [Compound I-84, (R)—N-hydroxy-1′-(2-methoxyethyl)-2′-oxo-3,4-dihydro-1H-spiro[naphthalene-2,3′-pyrrolidine]-7-carboxamide], the values for the IC50 in assay [1] and in assay [2] were not above 100 nM and more than 500 nM, respectively.

As for `O=C(NO)c1ccc2c(c1)C[C@]1(CC2)CCN(Cc2ccc3nonc3c2)C1=O` [Compound I-91, (R)-1′-(benzo[c][1,2,5]oxadiazol-5-ylmethyl)-N-hydroxy-2′-oxo-3,4-dihydro-1H-spiro[naphthalene-2,3′-pyrrolidine]-7-carboxamide], the IC50 in assay [1] and in assay [2] was not above 100 nM each time.

`CS(=O)(=O)N1CCC2(CCc3ccc(C(=O)NO)cc3C2)C1` (stereo not drawn) [Compound I-13, N-hydroxy-1′-(methylsulfonyl)-3,4-dihydro-1H-spiro[naphthalene-2,3′-pyrrolidine]-7-carboxamide]: the IC50 was not above 100 nM in assay [1] and more than 500 nM in assay [2].

Regarding `O=C(NO)c1ccc2c(c1)C[C@@]1(CC2)CCN(CC(=O)N2CCOCC2)C1=O` [Compound I-64, (S)—N-hydroxy-1′-(2-morpholino-2-oxoethyl)-2′-oxo-3,4-dihydro-1H-spiro[naphthalene-2,3′-pyrrolidine]-7-carboxamide], the IC50 in assay [1] is not above 100 nM; in assay [2], more than 500 nM.

As for `O=C(NO)c1ccc2c(c1)C[C@@]1(CC2)CC(=O)N(CC2CCC2)C1` [Compound I-134, (S)-1′-(cyclobutylmethyl)-N-hydroxy-5′-oxo-3,4-dihydro-1H-spiro[naphthalene-2,3′-pyrrolidine]-7-carboxamide], the concentration for half-maximal inhibition (IC50) in assay [1] was not above 100 nM; in assay [2] it was more than 500 nM.

Consider `O=C(NO)c1ccc2c(c1)C[C@]1(CC2)CC(=O)N(C2CC2)C1` [Compound I-148, (R)-1′-cyclopropyl-N-hydroxy-5′-oxo-3,4-dihydro-H-spiro[naphthalene-2,3′-pyrrolidine]-7-carboxamide], for which the IC50 in assay [1] was not above 100 nM; in assay [2] it was more than 500 nM.

With `O=C(NO)c1ccc2c(c1)C[C@]1(CC2)CC(=O)N(c2ccccc2)C1` [Compound I-145, (R)—N-hydroxy-5′-oxo-1′-phenyl-3,4-dihydro-1H-spiro[naphthalene-2,3′-pyrrolidine]-7-carboxamide], the values for the IC50 in assay [1] and in assay [2] were not above 100 nM and more than 500 nM, respectively.

Turning to `Cc1ccc(CN2CC[C@@]3(CCc4ccc(C(=O)NO)cc4C3)C2=O)cc1` [Compound I-122, (S)—N-hydroxy-1′-(4-methylbenzyl)-2′-oxo-3,4-dihydro-1H-spiro[naphthalene-2,3′-pyrrolidine]-7-carboxamide], the IC50 in assay [1] and in assay [2] was not above 100 nM in each case.

For `O=C(NO)c1ccc2c(c1)C[C@]1(CC2)CCN(c2ccc3nccn3c2)C1=O` [Compound I-110, (R)—N-hydroxy-1′-(imidazo[1,2-a]pyridin-6-yl)-2′-oxo-3,4-dihydro-1H-spiro[naphthalene-2,3′-pyrrolidine]-7-carboxamide], the IC50 is not above 100 nM in assay [1] and 100 to 500 nM in assay [2].

As for `O=C(NO)c1ccc2c(c1)C[C@]1(CC2)CCN(CC(=O)N2CCOCC2)C1=O` [Compound I-92, (R)—N-hydroxy-1′-(2-morpholino-2-oxoethyl)-2′-oxo-3,4-dihydro-1H-spiro[naphthalene-2,3′-pyrrolidine]-7-carboxamide], the IC50 was not above 100 nM in assay [1] and more than 500 nM in assay [2].

With `O=C(NO)c1ccc2c(c1)C[C@]1(CC2)CCN(Cc2ccc(OC(F)(F)F)cc2)C1=O` [Compound I-100, (R)—N-hydroxy-2′-oxo-1′-(4-(trifluoromethoxy)benzyl)-3,4-dihydro-1H-spiro[naphthalene-2,3′-pyrrolidine]-7-carboxamide], the IC50 in assay [1] and in assay [2] was not above 100 nM throughout.

The values are drawn from patent publication US9637453B2, “3-spirocyclic-6-hydroxamic acid tetralins as HDAC inhibitors” (Forma Therapeutics, Inc., priority 2015, dated 2017).
